Test results published in patent US4305942A, “Xanthine oxidase inhibitor and therapeutic treatment using same” (Siegfried Aktiengesellschaft, priority 1979, dated 1981).
Values joined by “and” are separate entries in the source; they are usually repeats but may differ in a detail not shown here. Equal values may be shown once. Read-outs that look alike come from different tables or passages of the source.

Columns and labels:
[1] = target: T1, xanthine oxidase (Bos taurus, UniProt P80457); assay: xanthine oxidase inhibition in vitro (UV-spectrophotometric uric acid formation at 290 nm from hypoxanthine); type: biochemical; settings: for Inhibition (%) of xanthine oxidase: 6 minutes, ambient temperature
T1 construct: purchased CALBIOCHEM 682151
Description: In the human in vivo metabolism the xanthine oxidase decomposes xanthine and hypoxanthine, respectively, to yield uric acid. This decomposition reaction can be perfectly simulated in vitro. For this purpose buffered solutions of (a) hypoxanthine, (b) xanthine oxidase and (c) the test substance are prepared. Solution (a) and (c) are mixed and filled into the cuvette of a UV-spectrophotometer. Solution (b) is then added into the cuvette. The UV-spectrophotometer is adjusted to 290 nm, i.e. to one of the main absorption lines of uric acid. Registration of the intensity of the 290 nm line is commenced immediately upon adding solution (b), i.e., upon adding the xanthine oxidase solution. The measurement is continued for exactly 6 minutes. For each test substance a certain number of measurements is carried out at varying concentrations of the test substance. The registered intensity values obtained after a certain time, here after 6 minutes, are compared to a standard registration containing as a solution (c) a blank buffer solution.
For the present measurements the UV-spectrophotometer used is a ZEISS PM Q II.
Solution (a) is 1 ml hypoxanthine puriss (FLUKA No. 56700) dissolved in a concentration of 1.5×10^-4 moles/liter in a 0.067 molar phosphate buffer solution having a pH of 7.4.
Solution (b) is 1 ml xanthine oxidase (CALBIOCHEM No. 682151) having a specific activity of 2.65 I.U./ml at 30° C., and is diluted in a ratio of 1:200 in the same phosphate buffer as used in solution (a).
Solution (c) is 1 ml of blank phosphate buffer for controls (standards) and a solution of the test substance dissolved in said phosphate buffer in varying concentrations, respectively.
The spectrophotometric measurements are carried out at ambient temperature.

[2] = cited from earlier work

T1 sequence (P80457 whole entry): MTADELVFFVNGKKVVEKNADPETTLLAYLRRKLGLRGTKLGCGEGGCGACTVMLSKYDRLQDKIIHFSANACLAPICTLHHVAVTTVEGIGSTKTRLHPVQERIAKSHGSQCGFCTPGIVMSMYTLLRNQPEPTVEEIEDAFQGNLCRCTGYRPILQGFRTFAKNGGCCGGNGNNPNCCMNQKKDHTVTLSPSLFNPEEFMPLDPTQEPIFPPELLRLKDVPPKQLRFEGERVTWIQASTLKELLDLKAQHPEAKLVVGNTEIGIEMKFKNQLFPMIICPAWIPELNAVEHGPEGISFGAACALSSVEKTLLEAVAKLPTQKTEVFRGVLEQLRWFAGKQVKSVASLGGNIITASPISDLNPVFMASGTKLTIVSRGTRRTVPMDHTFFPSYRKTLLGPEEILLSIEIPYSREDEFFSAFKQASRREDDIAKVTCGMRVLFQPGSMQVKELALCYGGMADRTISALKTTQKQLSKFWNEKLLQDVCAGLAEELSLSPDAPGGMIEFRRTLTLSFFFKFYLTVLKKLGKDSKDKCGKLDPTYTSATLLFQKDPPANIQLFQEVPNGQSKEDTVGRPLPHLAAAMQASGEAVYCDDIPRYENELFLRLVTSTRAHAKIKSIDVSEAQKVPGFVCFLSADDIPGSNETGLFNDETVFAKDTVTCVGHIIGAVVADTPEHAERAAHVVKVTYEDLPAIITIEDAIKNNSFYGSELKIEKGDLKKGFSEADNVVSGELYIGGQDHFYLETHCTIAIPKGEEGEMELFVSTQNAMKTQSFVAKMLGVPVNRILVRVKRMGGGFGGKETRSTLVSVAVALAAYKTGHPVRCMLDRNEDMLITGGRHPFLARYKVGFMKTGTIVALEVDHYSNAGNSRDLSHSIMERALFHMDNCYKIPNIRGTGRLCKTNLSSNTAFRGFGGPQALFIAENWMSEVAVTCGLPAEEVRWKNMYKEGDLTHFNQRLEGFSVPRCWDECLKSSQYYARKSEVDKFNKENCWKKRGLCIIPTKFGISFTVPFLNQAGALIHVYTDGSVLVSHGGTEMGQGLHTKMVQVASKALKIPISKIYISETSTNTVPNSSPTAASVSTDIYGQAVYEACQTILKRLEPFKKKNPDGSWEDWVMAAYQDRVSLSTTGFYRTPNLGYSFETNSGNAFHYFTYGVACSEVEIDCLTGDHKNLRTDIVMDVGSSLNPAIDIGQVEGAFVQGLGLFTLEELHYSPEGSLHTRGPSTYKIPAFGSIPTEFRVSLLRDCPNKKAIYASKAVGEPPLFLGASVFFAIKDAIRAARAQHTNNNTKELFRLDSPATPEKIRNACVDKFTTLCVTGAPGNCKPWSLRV

Row | Inhibition (%) of xanthine oxidase ([1]; 1.25 × 10^-5 moles/liter azapropazone, pH 7.4) | Inhibition (%) of xanthine oxidase ([1]; 2.50 × 10^-5 moles/liter azapropazone, pH 7.4) | Inhibition (%) of xanthine oxidase ([1]; 5.00 × 10^-5 moles/liter azapropazone, pH 7.4) | IC50 ([1]; 50% inhibition concentration (xanthine oxidase), IC50 expressed in μg/ml) | IC50 ([1]; 50% inhibitive concentration IC50 (xanthine oxidase), interpolated from inhibition values, hypoxanthine substrate, pH 7.4) | Structure (SMILES) | plasma level ([2]; 1000 mg/d azapropazone orally in one single portion) | plasma level ([2]; 300 mg/d allopurinol orally in one single portion)
1 | 20% | 35% | 55% | 44.9 µM | 40 µM | CCCC1C(=O)N2C(N(C)C)=Nc3ccc(C)cc3N2C1=O (stereo not shown) [azapropazone, 3-dimethylamino-7-methyl-1,2-(n-propylmalonyl)-1,2-dihydro-1,2,4-benzotriazine dihydrate] | 80.8 µg/mL | –
2 | – | – | – | – | – | Oc1ncnc2[nH]ncc12 [allopurinol] | – | 2 µg/mL and 2.0 µg/mL
